# Where two headings read alike, the source gives them in different places.
# Legend:
# IMP-1 [1] = target: T1, IMP-1 (Serratia marcescens, UniProt P52699); conditions: data from ref. 2; cited from earlier work
# VIM-1 = VIM-1 (Pseudomonas aeruginosa, UniProt A0A0F7KYQ8)
# GIM-1 = GIM-1 (Pseudomonas aeruginosa, UniProt Q704V1); conditions: data from ref. 2; cited from earlier work
# SPM-1 = conditions: data from ref. 2; cited from earlier work
# Bla2 = Bla2 (Bacillus anthracis, UniProt Q93T40); assay: biochemical; assay type: biochemical
# Sequence of Bla2 (Q93T40 1-256): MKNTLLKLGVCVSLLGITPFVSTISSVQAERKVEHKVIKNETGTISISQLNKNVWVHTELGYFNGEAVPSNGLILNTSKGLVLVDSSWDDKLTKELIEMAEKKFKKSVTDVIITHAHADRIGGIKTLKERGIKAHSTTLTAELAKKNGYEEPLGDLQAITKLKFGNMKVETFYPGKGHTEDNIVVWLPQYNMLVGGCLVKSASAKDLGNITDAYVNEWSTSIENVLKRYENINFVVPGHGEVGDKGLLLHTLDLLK
# [2] = target: human matrix metalloproteinase 8 (MMP-8) (Homo sapiens, UniProt P22894); assay: Human MMP-8 inhibition, commercial assay kit (Enzo); conditions: at concentrations up to 100 μM
# Sequence of human matrix metalloproteinase 8 (MMP-8) (P22894 101-467): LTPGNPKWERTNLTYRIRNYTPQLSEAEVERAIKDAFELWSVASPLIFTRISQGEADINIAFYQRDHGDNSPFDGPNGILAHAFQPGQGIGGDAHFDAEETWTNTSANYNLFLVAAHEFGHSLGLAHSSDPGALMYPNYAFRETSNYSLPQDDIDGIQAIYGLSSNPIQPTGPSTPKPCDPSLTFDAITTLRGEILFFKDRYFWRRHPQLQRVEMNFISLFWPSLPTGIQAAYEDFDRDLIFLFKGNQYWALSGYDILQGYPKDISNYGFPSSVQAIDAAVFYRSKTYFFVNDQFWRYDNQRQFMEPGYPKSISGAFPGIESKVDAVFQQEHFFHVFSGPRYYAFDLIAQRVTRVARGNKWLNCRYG
# IMP-1 [3] = target: T1, IMP-1; assay: biochemical; set-up: species or system Pseudomonas aeruginosa
# [4] = target: subclass B2 metallo-β-lactamase CphA (Aeromonas hydrophila, UniProt P26918); conditions: cited from earlier work
# Sequence of subclass B2 metallo-β-lactamase CphA (P26918 28-254): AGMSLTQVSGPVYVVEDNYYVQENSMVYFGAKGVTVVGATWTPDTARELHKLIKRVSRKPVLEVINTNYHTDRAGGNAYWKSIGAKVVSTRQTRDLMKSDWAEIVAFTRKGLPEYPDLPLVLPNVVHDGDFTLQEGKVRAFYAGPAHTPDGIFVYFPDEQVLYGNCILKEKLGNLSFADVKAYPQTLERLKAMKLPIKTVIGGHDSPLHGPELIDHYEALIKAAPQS
# IMP-1 [5] = target: T1, IMP-1; conditions: cited from earlier work
# other MBLs = conditions: cited from earlier work
# [6] = tested on: O=C(Cc1cccs1)N[C@@H]1C(=O)N2C(C(=O)O)=C(/C=C/c3ccc([N+](=O)[O-])cc3[N+](=O)[O-])CS[C@H]12; assay: purified protein, by the assay type; conditions: pH 7.5
# IMP-1 [7] = target: T1, IMP-1; conditions: ratio of Km values
# [8] = data from ref. 2; read-out: Km for VIM-1; cited from earlier work
# [9] = read-out: Km for VIM-1; data from ref. 2; cited from earlier work
# T1 sequence (P52699 19-246 limits assumed): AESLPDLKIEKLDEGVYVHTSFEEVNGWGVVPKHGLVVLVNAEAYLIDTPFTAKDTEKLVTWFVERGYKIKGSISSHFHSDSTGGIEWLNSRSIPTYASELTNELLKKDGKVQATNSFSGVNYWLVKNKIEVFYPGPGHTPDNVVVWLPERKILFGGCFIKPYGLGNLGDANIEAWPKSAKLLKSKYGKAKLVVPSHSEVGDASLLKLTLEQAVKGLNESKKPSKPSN
# Sequence of GIM-1 (Q704V1 entry or part of it): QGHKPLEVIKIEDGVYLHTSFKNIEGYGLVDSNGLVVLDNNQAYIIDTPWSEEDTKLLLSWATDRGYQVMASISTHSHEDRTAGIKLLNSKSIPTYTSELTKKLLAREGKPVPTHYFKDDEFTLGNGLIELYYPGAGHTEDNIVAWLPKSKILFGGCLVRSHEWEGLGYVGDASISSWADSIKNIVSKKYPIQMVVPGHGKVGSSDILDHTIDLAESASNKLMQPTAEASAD
compound,measurement,setting,value
CC1(C)S[C@@H]2[C@H](NC(=O)[C@H](N)c3ccccc3)C(=O)N2[C@H]1C(=O)O [Ampicillin],Km,IMP-1 [1],200 µM
same,Km,VIM-1; [8],917 µM
same,Km,GIM-1,20 µM
same,Km,SPM-1,72 µM
"C[C@H](CS)C(=O)N1CCC[C@H]1C(=O)O [Captopril, captopril]",IC50,Bla2,25 µM
CC(=O)OCC1=C(C(=O)O)N2C(=O)[C@@H](NC(=O)Cc3cccs3)[C@H]2SC1 [Cephalothin],Km,IMP-1 [1],21 µM
same,Km,VIM-1; [9],53 µM
same,Km,GIM-1,16 µM
same,Km,SPM-1,4 µM
"O=C(O)[C@@H]1CSC(c2ccccc2)=N1 [Compound 1, (R)-4,5-dihydro-2-phenylthiazole-4-carboxylic acid]",inhibition of human MMP-8,[2],did not exhibit inhibition
"O=C(O)c1csc(Cc2ccccc2)n1 [Compound 2, 2-benzylthiazole-4-carboxylic acid]",inhibition of human MMP-8,[2],did not exhibit inhibition
"O=C(NCc1ccccc1)c1cccc(O)n1 [Compound 3, N-benzyl-6-hydroxypyridine-2-carboxamide]",IC50,IMP-1 [3],13.9 µM
same,Ki,IMP-1 [3],3 to 19 µM
"O=c1ccc(-c2ccccc2)cn1O [Compound 4, 1-hydroxy-5-phenylpyridin-2-one]",IC50,IMP-1 [3],12 µM
same,Ki,IMP-1 [3],3 to 19 µM
"O=C(O)C1CS[C@H](c2ccccc2O)N1 (stereo partly drawn) [Compound 160, (R)-2-(2-hydroxyphenyl)thiazolidine-4-carboxylic acid]",IC50,IMP-1 [3]; read-out: IMP-1 IC50,29.2 µM
same,IC50,Bla2; read-out: Bla2 IC50,16 µM
"CC(C)(C)OC(=O)Nc1cccc(C2=NC(C(=O)O)CS2)c1 (stereo not drawn) [Compound 361, 2-[3-(tert-butoxycarbonylamino)phenyl]-4,5-dihydrothiazole-4-carboxylic acid]",IC50,Bla2; read-out: Bla2 IC50,70 µM
"Nc1cccc(C2=NC(C(=O)O)CS2)c1 (stereo not drawn) [Compound 362, 2-(3-aminophenyl)-4,5-dihydrothiazole-4-carboxylic acid]",IC50,IMP-1 [3]; read-out: IMP-1 IC50,100 µM
same,IC50,Bla2; read-out: Bla2 IC50,20 µM
same,Ki,Bla2; read-out: Bla2 KI,15 µM
"CC1(C)SC(c2ccc(Br)cc2)=N[C@H]1C(=O)O [Compound 365, (S)-2-(4-bromophenyl)-4,5-dihydro-5,5-dimethylthiazole-4-carboxylic acid]",IC50,IMP-1 [3]; read-out: IMP-1 IC50,150 µM
"CC(=O)Nc1cccc(C2=N[C@@H](C(=O)O)C(C)(C)S2)c1 [Compound 368, (S)-2-(3-acetamidophenyl)-4,5-dihydro-5,5-dimethyolthiazole-4-carboxylic acid]",IC50,IMP-1 [3]; read-out: IMP-1 IC50,60 µM
"COC(=O)[C@@H]1CSC(CNC(=O)OC(C)(C)C)=N1 [Compound 369, tert-butyl ((R)-4-(methoxycarbonyl)-4,5-dihydrothiazol-2-yl)methylcarbamate]",IC50,Bla2; read-out: Bla2 IC50,110 µM
"C[C@@H](O)[C@H]1C(=O)N2C(C(=O)O)=C(SCCN=CN)C[C@H]12 [Imipenem, imipenem]",Km,VIM-1; [9],1.5 µM
same,Km,GIM-1,27 µM
C[C@@H](O)[C@H]1C(=O)N2C(C(=O)O)=C(S[C@@H]3CN[C@H](C(=O)N(C)C)C3)[C@H](C)[C@H]12 [Meropenem],Km,VIM-1; [8],48 µM
same,Km,GIM-1,2.7 µM
same,Km,SPM-1,281 µM
"O=C(Cc1cccs1)N[C@@H]1C(=O)N2C(C(=O)O)=C(/C=C/c3ccc([N+](=O)[O-])cc3[N+](=O)[O-])CS[C@H]12 [Nitrocefin, nitrocefin]",Km,IMP-1 [1],27 µM
same,Km,VIM-1; [9],17 µM
same,Km,GIM-1,5.8 µM
same,Km,SPM-1,4 µM
"O=C(O)c1cccc(C(=O)O)n1 [pyridine-2,6-dicarboxylic acid]",inhibition of CphA activity,[4],potently inhibit
same,inhibitory effect on IMP-1,IMP-1 [5],potently inhibit
O=C(O)c1ccccn1 [pyridine-2-carboxylic acid],Ki,[4]; read-out: Ki against CphA,5.7 µM
same,activity against other MBLs,other MBLs,little or no activity
same,inhibitory effect on IMP-1,IMP-1 [5],only a very weak inhibitory effect
IMP-1 (Serratia marcescens),Km,[6],25 µM
penicillin G,fold less tight binding to IMP-1 than imipenem,IMP-1 [7],~13 ×
same,fold less tight binding to IMP-1 than nitrocefin,IMP-1 [7],~20 ×
same,Km,IMP-1 [1],520 µM
same,Km,VIM-1; [8],841 µM
same,Km,GIM-1,46 µM
same,Km,SPM-1,38 µM
